Target: T1, pfGDPD (Pyrococcus furiosus, UniProt Q8TZI9)
T1 construct: gene PF2003; full length 253 aa, no signal peptide; synthetic gene in pET28a, N- and C-terminal His6 tags kept; E. coli SHuffle T7; Ni-NTA; 34,059 Da
T1 sequence (Q8TZI9 1-253): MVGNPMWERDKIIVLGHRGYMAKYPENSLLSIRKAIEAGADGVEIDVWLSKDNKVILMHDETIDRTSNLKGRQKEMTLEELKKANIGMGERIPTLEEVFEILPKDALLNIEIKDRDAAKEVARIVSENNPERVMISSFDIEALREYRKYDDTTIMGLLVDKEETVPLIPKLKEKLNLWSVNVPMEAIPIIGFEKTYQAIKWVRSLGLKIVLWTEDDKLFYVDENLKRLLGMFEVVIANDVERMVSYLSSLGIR
Test: colorimetric p-nitrophenol release
Assay type: biochemical
Details: Mn2+ (best at 5 mM), 50 mM Tris-HCl pH 8.5, 55 °C

Compound: O=[N+]([O-])c1ccc(OP(=O)(O)Oc2ccc([N+](=O)[O-])cc2)cc1 [bis(p-nitrophenyl) phosphate]
- colorimetric p-nitrophenol release: The optimal temperature of recombinant pfGDPD was determined using BpNPP as substrate
